Several values for one entry are separate records, joined by “and”; a condition that tells them apart may be missing. Equal entries are not always repeated.
What was measured:
[1] = Zeta potential of the molecular assembly including a single type of cationic amino acid type lipid; type: physicochemical; conditions: molecular assembly 1 mg/mL, extrusion method, 30 mM phosphoric buffer solution pH7.4
Protocol: The zeta potential of a molecular assembly (1 mg/mL) including a single type of cationic amino acid type lipid (2), (3) or (4) prepared by the extrusion method was measured by a zeta potentiometer (Nano-ZS, Malvern) with 30 mM of a phosphoric buffer solution at pH7.4. The zeta potential of each molecular assembly was +37 mV with the cationic amino acid type lipid (2), +45 mV with the cationic amino acid type lipid (3), and lower at +18 mV with the cationic amino acid type lipid (4). From such zeta potentials, it has been clarified that the surface of a molecular assembly formed of a cationic amino acid type lipid is charged positive under physiological conditions.

[2] = test system: simian kidney-derived cells COS-7; test: Cytotoxicity test, cell survival rate by WST assay, COS-7; type: cell-based; conditions: COS-7, 10 μg added, 24 hours later
Protocol: (§1) The cationic amino acid type lipid (2) was evaluated in terms of cytotoxicity by adding different amounts thereof to cells. Specifically, 1×10^4 simian kidney-derived cells COS-7 or human fibroblasts CCD-32SK were planted to dishes and cultured for 24 hours in an incubator. To the cultured cells, a cationic liposome diluted with a medium was added so as to be 0.1, 1, 5, and 10 μg/dish. The cells were cultured for another 24 hours. Then, the cells were washed with a medium, and the cell survival rate was calculated by the WST assay. Based on the results, the cytotoxicity was evaluated (n=2). For comparison, the same test was performed using lipofectamine, which is currently in general use as a gene introduction drag. In the figure, (a) represents the results with COS-7, and (b) represents the results with CCD-32SK. Where 10 μg of lipofectamine was added to COS-7, the cell survival rate 24 hours later was 20%.

[3] = Particle size of the molecular assembly by dynamic light scattering method; type: physicochemical; conditions: hydrate extruded through 0.22 μm membrane filter
Protocol: (§2) 10 mg of the cationic amino acid type lipid (2), (3) or (4) was hydrated in 2 mL of pure water and stirred at room temperature for 6 hours. Then, the resultant hydrate was transmitted with pressure through a membrane filter (final pore diameter: 0.22 μm) (extrusion method). […] After the transmission, the resultant substance was subjected to ultracentrifugation (33,000 rpm, 30 min.) and re-dispersed in pure water to obtain a molecular assembly including a respective cationic amino acid type lipid.
A hydrate dispersion solution of the cationic amino acid type lipid (2) was extruded and observed with an electron microscope. The particle size of the vesicles was approximately the same as the particle size thereof measured by a dynamic light scattering method (181±83 nm).
(§3) Lys-Asp2C16 (5) was hydrated at a lipid concentration of 10 mg/mL and transmitted through a membrane filter having a final pore diameter of 0.22 μm by the extrusion method. Then, the phase transition temperature and the particle size of the assembly were measured. The particle size of the molecular assembly of Lys-Asp2C16 (5) measured by the dynamic light scattering method was 374±178 nm, and the phase transition temperature thereof was 30° C.

[4] = Phase transition temperature by differential scanning calorimeter; type: physicochemical; conditions: for Transition temperature: comparison of cationic vesicles, hydrated at 10 mg/mL, extruded through 0.22 μm filter; for Tc, temperature of the gel to liquid-crystalline phase transition: dispersed in pure water, lipid concentration 1 wt %, DSC 2° C./min, 20 to 80° C.
Protocol: Each of the obtained cationic amino acid type lipids was dispersed in a simple medium of pure water at 60° C. and used as a measurement sample. 60 μL of a sample solution (lipid concentration: 1 wt %) was encapsulated in a silver pan (sealable type), and the phase transition temperature Tc was measured by a differential scanning calorimeter with the temperature elevation rate of 2° C./min. and the measurement temperature of 20 to 80° C.
as §3

[5] = test system: human fibroblasts CCD-32SK; test: Cytotoxicity test, cell survival rate by WST assay, CCD-32SK; type: cell-based; conditions: 24 h, 10 μg/dish
Protocol: as §1

[6] = Observation of the molecular assembly with transmission electron microscope; type: physicochemical; conditions: for Form of molecular assembly observed with electron microscope: hydrate dispersion extruded
Protocol: as §2
The thickness of the ribbon is considered to be about 5 nm, which is approximately the same as the thickness of the bilayer.

CCCCCCCCCCCCCCCCOC(=O)CCC(NC(=O)C(N)CCCCN)C(=O)OCCCCCCCCCCCCCCCC (centres unmarked) [Compound 2]
ξ potential [1]: +37 mV | Cell survival rate [2]: not decreased at all | Particle size (dynamic light scattering method) [3]: 181±83 nm and 188 ± 82 nm | Transition temperature [4]: 41.2 °C | Tc, temperature of the gel to liquid-crystalline phase transition [4]: 41.2 °C | Cell survival rate [5]: about 80%

CCCCCCCCCCCCCCCCOC(=O)CCC(N)C(=O)OCCCCCCCCCCCCCCCC (centres unmarked) [Compound 1]
Tc, temperature of the gel to liquid-crystalline phase transition [4]: 49.4 °C

CCCCCCCCCCCCCCCCOC(=O)CCC(NC(=O)C(N)CCCNC(=N)N)C(=O)OCCCCCCCCCCCCCCCC (centres unmarked) [Compound 4]
ξ potential [1]: +18 mV | Form of molecular assembly observed with electron microscope ([6]; TEM): monolayer vesicle structures | Particle size (dynamic light scattering method) [3]: 1647±733 nm | Tc, temperature of the gel to liquid-crystalline phase transition [4]: 44.8 °C

CCCCCCCCCCCCCCCCOC(=O)CC(NC(=O)C(N)CCCCN)C(=O)OCCCCCCCCCCCCCCCC (centres unmarked) [Compound 5, Lys-Asp2C16, reference compound]
Length of the ribbon ([6]; TEM): ≥ 1 μm | Thickness of the ribbon ([6]; TEM): about 5 nm | Width of the ribbon ([6]; TEM): about 100 nm | Stability of the form of the molecular assembly ([6]; after transmission through 0.22 μm membrane filter): unstable in the form | Form of molecular assembly observed with electron microscope ([6]; TEM): ribbon-like molecular assembly | Particle size (dynamic light scattering method) [3]: 374 ± 178 nm | Particle size (dynamic light scattering method) ([3]; listed as Lys-Asp2C16 (5)): 374±178 nm | Transition temperature [4]: 30.0 °C | Transition temperature ([4]; listed as Lys-Asp2C16 (5)): 30 °C

CCCCCCCCCCCCCCCCOC(=O)CCC(NC(=O)C(N)Cc1c[nH]cn1)C(=O)OCCCCCCCCCCCCCCCC (centres unmarked) [Compound 3]
ξ potential [1]: +45 mV | Diameter of tubular molecular assembly ([6]; electron microscope): about 20 nm | Wall thickness of the tube ([6]; electron microscope): about 5 nm | Form of molecular assembly observed with electron microscope ([6]; TEM): tubular molecular assembly | Particle size (dynamic light scattering method) [3]: 241±96 nm | Tc, temperature of the gel to liquid-crystalline phase transition [4]: 43.7 °C

Reference: US7838685B2 (priority 2005, dated 2010)
